In ChEMBL document CHEMBL3112501, “Design, synthesis and preliminary bioactivity studies of 1,2-dihydrobenzo[d]isothiazol-3-one-1,1-dioxide hydroxamic acid derivatives as novel histone deacetylase inhibitors” (Bioorg Med Chem, 2014) one finds IC50 data, which are given here for one compound.

The structures appear in SMILES notation.

The target in this test is Histone deacetylase (HDAC1 and HDAC2) (Homo sapiens, UniProt Q13547+Q92769). Kind of test: Inhibition of HDAC1/2 in human HeLa cell extracts using acetylated histone peptide as substrate after 30 mins. The test is classed as protein assay.

As a reminder, the IC50 is the concentration that gives 50% inhibition. The low end stands for higher potency, the high end for lower potency. For `O=C(CCCCCN1C(=O)c2ccc(NC(=O)Cc3ccccc3)cc2S1(=O)=O)NO`, the IC50 was 0.244 µM.
